Experimental data as given in patent US20240199546A1, “INHIBITORS OF SOLUTE CARRIER FAMILY 6A MEMBER 19 (SLC6A19) AND METHODS OF USE THEREOF” (Maze Therapeutics, Inc., priority 2022, published 2024).

Target: T1, human SLC6A19 and TMEM27 (Homo sapiens, UniProt Q695T7)
T1 construct: expressed in transfected cells
T1 sequence (Q695T7 1-634): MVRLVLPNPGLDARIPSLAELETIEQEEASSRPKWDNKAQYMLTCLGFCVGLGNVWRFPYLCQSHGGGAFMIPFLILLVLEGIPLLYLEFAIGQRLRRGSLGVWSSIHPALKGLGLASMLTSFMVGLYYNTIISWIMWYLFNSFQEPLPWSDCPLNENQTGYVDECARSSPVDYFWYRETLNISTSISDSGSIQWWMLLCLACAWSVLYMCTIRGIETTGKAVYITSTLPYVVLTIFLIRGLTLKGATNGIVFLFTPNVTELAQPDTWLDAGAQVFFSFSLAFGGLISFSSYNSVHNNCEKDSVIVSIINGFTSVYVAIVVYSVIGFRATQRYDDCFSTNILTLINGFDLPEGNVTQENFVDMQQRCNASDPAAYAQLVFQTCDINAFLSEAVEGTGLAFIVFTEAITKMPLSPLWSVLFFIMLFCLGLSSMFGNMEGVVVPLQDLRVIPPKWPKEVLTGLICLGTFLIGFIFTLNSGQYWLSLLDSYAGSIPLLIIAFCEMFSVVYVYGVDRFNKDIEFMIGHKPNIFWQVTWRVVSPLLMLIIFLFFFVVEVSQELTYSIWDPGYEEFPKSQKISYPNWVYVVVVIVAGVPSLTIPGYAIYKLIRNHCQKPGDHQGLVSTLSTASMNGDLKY
T1 sequence (Q9HBJ8 15-222 partner): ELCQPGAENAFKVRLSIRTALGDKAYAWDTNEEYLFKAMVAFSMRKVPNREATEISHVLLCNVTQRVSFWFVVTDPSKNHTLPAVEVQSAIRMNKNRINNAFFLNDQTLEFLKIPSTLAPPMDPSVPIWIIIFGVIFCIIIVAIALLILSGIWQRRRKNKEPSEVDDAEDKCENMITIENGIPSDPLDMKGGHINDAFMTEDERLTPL
Assay: Radiolabelled (3H) leucine uptake in CHO cells with doxycycline-inducible expression of human SLC6A19 and TMEM27 (Example B-1)
Format: cell-based
Conditions: CHO cells with doxycycline-inducible expression of human SLC6A19 and TMEM27, read-out: SLC6A19_Radioligand Uptake Assay IC50
Method in brief: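 CHO cells were induced with doxycycline for 18 h at 37 °C, washed in HBSS, then exposed to compounds for 1 h: 8-point, 3-fold dilutions in duplicate, 0.5% DMSO final. Uptake measured by scintillation counting after 2 h shaking. Activity normalized with positive control as 0% and DMSO as 100%.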

| Structure (SMILES) | IC50 |
| --- | --- |
| O=C(NCc1cc2cc(C3CC3)c(OCc3ccon3)cc2[nH]1)N1CCCC1 [Compound 654, N-((5-cyclopropyl-6-(isoxazol-3-ylmethoxy)-1H-indol-2-yl)methyl)pyrrolidine-1-carboxamide] | 0.537 µM |
| Cc1cc(COc2cc3[nH]c(CNC(=O)C[C@H](C)O)cc3cc2Cl)on1 [Compound 286, (S)-N-((5-chloro-6-((3-methylisoxazol-5-yl)methoxy)-1H-indol-2-yl)methyl)-3-hydroxybutanamide] | 0.91 µM |
| Cc1cc(COc2cc3[nH]c(CNC(=O)C45COCC4C5)cc3cc2Cl)on1 (stereo not drawn) [Compound 300, N-((5-chloro-6-((3-methylisoxazol-5-yl)methoxy)-1H-indol-2-yl)methyl)-3-oxabicyclo[3.1.0]hexane-1-carboxamide] | 0.321 µM |
| C[C@@H]1CCN1C(=O)NCc1cc2cc(Cl)c(OCc3cscn3)cc2[nH]1 [Compound 361, (R)-N-((5-chloro-6-(thiazol-4-ylmethoxy)-1H-indol-2-yl)methyl)-2-methylazetidine-1-carboxamide] | 0.286 µM |
| Cc1cc(COc2cc3[nH]c(CNC(=O)CN(C)C)cc3cc2Cl)on1 [Compound 579, N-((5-chloro-6-((3-methylisoxazol-5-yl)methoxy)-1H-indol-2-yl)methyl)-2-(dimethylamino)acetamide] | 0.587 µM |
| CC1(C(=O)NCc2cc3cc(Cl)c(OCc4cccc(C(F)(F)F)n4)cc3[nH]2)CC1 [Compound 101, N-((5-chloro-6-((6-(trifluoromethyl)pyridin-2-yl)methoxy)-1H-indol-2-yl)methyl)-1-methylcyclopropane-1-carboxamide] | 4.36 µM |
| C[C@H]1CCN1C(=O)NCc1cc2cc(Cl)c(OCc3ccon3)cc2[nH]1 [Compound 362, (S)-N-((5-chloro-6-(isoxazol-3-ylmethoxy)-1H-indol-2-yl)methyl)-2-methylazetidine-1-carboxamide] | 0.983 µM |
| Cc1cc(COc2cc3[nH]c(CNC(=O)NC(C)C)cc3cc2Cl)on1 [Compound 638, 1-((5-chloro-6-((3-methylisoxazol-5-yl)methoxy)-1H-indol-2-yl)methyl)-3-isopropylurea] | 0.264 µM |

Second part, the compound after the results:

| IC50 | Structure (SMILES) |
| --- | --- |
| 0.116 µM | CCC(=O)NCc1cc2c(F)cc(OCc3cscn3)cc2[nH]1 [Compound 515, N-((4-fluoro-6-(thiazol-4-ylmethoxy)-1H-indol-2-yl)methyl)propionamide] |
| 0.141 µM | Cc1cc(COc2cc3[nH]c(CNC(=O)NCCF)cc3cc2Cl)on1 [Compound 371, 1-((5-chloro-6-((3-methylisoxazol-5-yl)methoxy)-1H-indol-2-yl)methyl)-3-(2-fluoroethyl)urea] |
| 0.112 µM | O=C(NCc1cc2cc(Cl)c(OCc3cscn3)cc2[nH]1)C(F)CF (racemic) [Compound 639, N-((5-chloro-6-(thiazol-4-ylmethoxy)-1H-indol-2-yl)methyl)-2,3-difluoropropanamide] |
| 0.156 µM | CC1(C(=O)NCc2cc3c(F)c(F)c(OCc4cscn4)cc3[nH]2)CC1 [Compound 526, N-((4,5-difluoro-6-(thiazol-4-ylmethoxy)-1H-indol-2-yl)methyl)-1-methylcyclopropane-1-carboxamide] |
| 0.179 µM | Cc1cc(COc2cc3[nH]c(CNC(=O)CC(F)F)cc3cc2F)on1 [Compound 518, 3,3-difluoro-N-((5-fluoro-6-((3-methylisoxazol-5-yl)methoxy)-1H-indol-2-yl)methyl)propanamide] |
| 0.26 µM | COc1cc2cc(CNC(=O)C3(C)CC3)[nH]c2cc1CCn1cccn1 [Compound 587, N-((6-(2-(1H-pyrazol-1-yl)ethyl)-5-methoxy-1H-indol-2-yl)methyl)-1-methylcyclopropane-1-carboxamide] |
| 0.221 µM | Cc1cc(COc2cc3[nH]c(CNC(=O)C(C)C#N)cc3cc2Cl)on1 (single isomer, unassigned) [Compound 446, (R or S)-N-((5-chloro-6-((3-methylisoxazol-5-yl)methoxy)-1H-indol-2-yl)methyl)-2-cyanopropanamide] |
